Experimental data from PubChem BioAssay (NCI).
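Dose response: 5 concentrations. Exposure: 48 h. Format: 96-well plates. Endpoint: linear interpolation; highest concentration if not reached. Abbreviation: GI50, concentration required for 50% inhibition of growth. TGI is the concentration that stops growth completely.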

How the values were obtained:
Assay in all cases: DTP human tumour cell line panel, 48 h
ACHN renal = system: ACHN renal
EKVX NSCLC = system: EKVX NSCLC
HOP-62 NSCLC = system: HOP-62 NSCLC
A549 NSCLC = system: A549 NSCLC
SK-MEL-2 melanoma = system: SK-MEL-2 melanoma
T-47D breast = system: T-47D breast
SNB-19 CNS = system: SNB-19 CNS
NCI-H522 lung = system: NCI-H522 lung
HT29 colon = system: HT29 colon
HL-60(TB) leukemia = system: HL-60(TB) leukemia

Compound	TGI (ACHN renal) [µM]	GI50 (EKVX NSCLC) [µM]	TGI (EKVX NSCLC) [µM]	GI50 (HOP-62 NSCLC) [µM]	TGI (HOP-62 NSCLC) [µM]	TGI (A549 NSCLC) [µM]	GI50 (SK-MEL-2 melanoma) [µM]	GI50 (T-47D breast) [µM]	TGI (T-47D breast) [µM]	GI50 (ACHN renal) [µM]	GI50 (SNB-19 CNS) [µM]	TGI (SNB-19 CNS) [µM]	GI50 (A549 NSCLC) [µM]	TGI (SK-MEL-2 melanoma) [µM]	GI50 (NCI-H522 lung) [µM]	TGI (NCI-H522 lung) [µM]	GI50 (HT29 colon) [µM]	TGI (HT29 colon) [µM]	GI50 (HL-60(TB) leukemia) [µM]	TGI (HL-60(TB) leukemia) [µM]
COc1cc2c(c(OC)c1OC)-c1ccc(OC)c(=O)cc1[C@@H](NC(C)=O)CC2	> 100	16.7	> 625	0.866	> 625	> 100	0.48	> 100	> 100											
COc1cccc(/C=N/NC(=O)c2ccccc2N2CCCC2)c1O	> 100	3.32	> 100	3.58	> 100	> 100	54	3.02	36.9	2.72	8.93	> 100	18.8	> 100	2.54	> 100	30.4	> 100		
CC[C@@]1(O)C(=O)OCc2c1cc1n(c2=O)Cc2cc3cccc([N+](=O)[O-])c3nc2-1	3.01	96.9	> 100	0.142	0.582	41.5	6.11			0.322	0.877	31.4	0.6	24.8	1.04	23.3	2.18	> 100	0.365	> 100
O=C1[C@@H]2C(c3ccccc3[N+](=O)[O-])=[N+](c3ccccc3)O[C@@H]2C(=O)N1c1ccc(Cc2ccc(N3C(=O)[C@H]4C(c5ccccc5[N+](=O)[O-])=[N+](c5ccccc5)O[C@H]4C3=O)cc2)cc1	> 100		> 100		> 100	> 100						> 100		> 100		> 100		> 100		> 100
C=C1C(=O)O[C@H]2[C@H]1CC/C(C=Nc1c(N)cc(C(F)(F)F)cc1C(F)(F)F)=C\CC[C@@]1(C)O[C@@H]21	2.68			2	4.19	3.74	1.41	0.55	2.64	1.26	1.93	4.98	1.95	3.12	1.66	4.13	1.13	3.1	0.801	27.2
CN1CCC2(CC1)NC(=O)c1c(c3ccc(Cl)c(Cl)c3n1C)C2C#N (stereo unspecified)	19.4	12.4	41.1	9.72	23.2	24.6		5.45	20.3	5.75	12.8	27.4	7.33		15.2	44.8	3.95	23.6	3.91	> 22.6
N#CCCCCCOCCOCCOCCOCCOCCCCCC#N	> 100		> 100		> 100	> 100						> 100		> 100		> 100		> 100		> 100
CCN1C(=O)N(CC)C2C1NN=c1s/c(=C\c3ccco3)c(=O)n12 (stereo unspecified)	> 100	1.7	> 100	0.722	> 100	> 100	0.84			0.818	0.741	> 100	0.801	> 100	0.33		0.361	> 100	0.284	6
Clc1ccc(Nc2ccnc(N3CCN(c4ccnc5cc(Cl)ccc45)CC3)n2)cc1				3.1	20.9	> 100		1.99	8.53		3.68	74.5	3.32		1.65	4.94	2.03	4.88	3.54	20
CCCCCCn1c(-c2ccc(C(=O)O/N=C(\N)c3ccc4ccccc4c3)cc2)nc(-c2ccccc2)c1-c1ccccc1		6.73	> 100	5.77	> 100	> 100	25.6	4.99	> 100		22.3	> 100	2.55	> 93.2	24.5	> 100	> 100	> 100	1.33	> 100
O=c1[nH]c(=O)c2cc3cc(C4CC(O)C(CO)O4)ccc3cc2[nH]1 (stereo unspecified)		> 100	> 100	> 100	> 100	> 100	11.3	> 100	> 100		> 100	> 100	> 100	> 100	17.5	87.8	> 100	> 100		
C[C@]12CC[C@@H]3c4cc(O)c(O)cc4CC[C@H]3[C@@H]1CC[C@@H]2O	54.5			4.08	54.6	> 82.4	3.23	7.73	27.7	8.94	11.1	> 100	7.16	22.2	0.987	3.83	27.2	61.3	2.33	24.7
COC(=O)C1=CO[C@@H](OC2OC(CO)C(O)C(O)C2O)[C@H]2[C@@H](C)[C@@H](O)[C@@H](O)[C@@H]12 (stereo partly specified)	> 100		> 100		> 100	> 100			> 100					> 100		> 100		> 100		> 100
COc1cc(-c2oc3c(OC)cc(OC)c(O)c3c(=O)c2OC)cc(OC)c1OC	> 100		> 100		6.62	> 100			> 100			> 100				40.2		> 100		> 100
Cc1ccc(NC(=O)c2cc3ccccc3c(N=Nc3cc(S(=O)(=O)O)ccc3O)c2O)c(C)c1	23		> 100		> 100	80.9			> 100			71.3		78.5		> 100		58.3		
N#C[Se]CCN1C(=O)C2C(C1=O)[C@H]1C=C[C@@H]2S1 (stereo partly specified)	3.99	1.83	4.28			4.56	2.44	2.52	7.78	2.07			1.93	6.43			2.65	8.98		
